target: T1, human GPR119 (Homo sapiens, UniProt Q8TDV5); assay: Functional cellular assay measuring GPR119-mediated cAMP release (HTRF) in HEK-293 cells stably expressing recombinant GPR119; assay type: cell-based; conditions: cell line expressing human GPR119, 30 minutes at room temperature
T1 construct: expressed in transfected cells
T1 sequence (Q8TDV5 1-335): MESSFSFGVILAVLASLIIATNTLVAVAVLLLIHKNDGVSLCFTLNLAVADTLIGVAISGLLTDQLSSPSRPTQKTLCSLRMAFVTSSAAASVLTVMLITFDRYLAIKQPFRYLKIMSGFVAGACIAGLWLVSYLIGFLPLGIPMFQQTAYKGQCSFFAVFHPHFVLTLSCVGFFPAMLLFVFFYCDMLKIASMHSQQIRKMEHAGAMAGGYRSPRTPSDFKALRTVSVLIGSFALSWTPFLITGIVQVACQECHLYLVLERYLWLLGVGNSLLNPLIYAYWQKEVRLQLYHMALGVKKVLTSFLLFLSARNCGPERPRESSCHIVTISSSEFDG
Method: Functional Cellular Assays Measuring GPR119-mediated cAMP Release
Compounds of the present disclosure, which are agonists of GPR119, were characterized by functional assays measuring the cAMP response of HEK-293 cell lines stably expressing recombinant GPR119 from man, mouse or rat, or by using the hamster cell line HIT-T15 expressing GPR119 endogenously. The cAMP content was determined using a kit based on homogenous time-resolved fluorescence (HTRF) from Cisbio Corp. (cat. no. 62AM4PEC). For preparation, cells were split into T175 culture flasks and grown to near confluency in medium (DMEM/10% FCS for HEK-293 cells, and F-12K medium/10% horse serum/2.5% FCS for HIT-T15 cells, respectively). Medium was then removed and cells washed with PBS lacking calcium and magnesium ions, followed by proteinase treatment with accutase (Sigma-Aldrich, cat. no. A6964). Detached cells were washed and resuspended in assay buffer (1×HBSS; 20 mM HEPES, 0.1% BSA, 2 mM IBMX) and cellular density determined. They were then diluted to 400000 cells/mL and 25 μL-aliquots dispensed to the wells of 96-well plates. For measurement, 25 μL of test compound in assay buffer was added and incubated for 30 minutes at room temperature. After addition of HTRF reagents diluted in lysis buffer, the plates were incubated for 1 hour, followed by measuring the fluorescence ratio at 665 vs. 620 nm. Potency of the agonists was quantified by determining the concentrations that caused 50% of the maximal response/activation (EC50). See Table 6 for exemplary data obtained using the cell line expressing human GPR119.

Row | SMILES | EC50 [nM]
1 | CS(=O)(=O)C1CN(c2ncc(N3CCC(Cc4ccc(OCC(F)(F)F)nc4)C3=O)cn2)C1 (single isomer, unassigned) [Compound 1-44] | 138
2 | C[S+]([O-])C1CN(c2ncc(N3CC[C@@H](Oc4ccc(OCC(F)(F)F)nc4)C3=O)cn2)C1 (single isomer, unassigned) [Compound 1-24] | 335
3 | C[S+]([O-])C1CN(c2ncc(N3CC[C@@H](Oc4ccc(Oc5ccc(F)cc5)nc4)C3=O)cn2)C1 (stereo partly drawn) [Compound 1-14] | 2070
4 | CCNC(=O)C1CN(c2ncc(N3CC[C@@H](Oc4ccc(OCC(F)(F)F)nc4)C3=O)cn2)C1 [Compound 4-13] | 244
5 | CNCCOC(=O)C1CN(c2ncc(N3CC[C@@H](Oc4ccc(OCC(F)(F)F)nc4)C3=O)cn2)C1 [Compound 4-16] | 213
6 | CC(C)[S+]([O-])C1CN(c2ncc(N3CC[C@@H](Oc4ccc(C(=O)C5CC5)c(F)c4)C3=O)cn2)C1 (stereo partly drawn) [Compound 1-41] | 221
7 | CN(CCO)C(=O)C1CN(c2ncc(N3CC[C@@H](Oc4ccc(OCC(F)(F)F)nc4)C3=O)cn2)C1 [Compound 4-17] | 261
8 | O=C(O)C1CN(c2ccc(N3CC[C@@H](Oc4ccc(OCC(F)(F)F)nc4)C3=O)cn2)C1 [Compound 3-02] | 391
9 | O=C(NCCO)C1CN(c2ncc(N3CC[C@@H](Oc4ccc(Oc5ccc(F)cc5)nc4)C3=O)cn2)C1 [Compound 4-12] | 5750
10 | CC(=O)NC1CN(c2ncc(N3CC[C@@H](Oc4ccc(OCC(F)(F)F)nc4)C3=O)cn2)C1 [Compound 4-24] | 1350
11 | O=C(NCO)C1CN(c2ccc(N3CC[C@@H](Oc4ccc(OCC(F)(F)F)nc4)C3=O)cn2)C1 [Compound 5-04] | 146
12 | CN(C)C(=O)C1CN(c2ncc(N3CCC(Cc4ccc(OCC(F)(F)F)nc4)C3=O)cn2)C1 (single isomer, unassigned) [Compound 1-42] | 157
13 | CN(C)C(=O)C1CN(c2ncc(N3CC(C)(C)C(Oc4ccc(C(=O)C5CC5)nc4)C3=O)cn2)C1 (stereo not drawn) [Compound 1-49] | 1360
14 | CN(C)C(=O)CC1CN(c2ncc(N3CC[C@@H](Oc4ccc(OCC(F)(F)F)nc4)C3=O)cn2)C1 [Compound 1-54] | 1660
15 | CN(C)C(=O)OC1CN(c2ncc(N3CC[C@@H](Oc4ccc(OCC(F)(F)F)nc4)C3=O)cn2)C1 [Compound 5-02] | 1030
16 | O=C1[C@H](Oc2ccc(OCC3CC3)nc2)CCN1c1cnc(N2CC(O)C2)c(F)c1 [Compound 1-02] | 206
17 | O=C(O)C1CN(c2ccc(N3CC[C@@H](Oc4ccc(OCC5CC5)nc4)C3=O)cn2)C1 [Compound 3-03] | 6050
18 | NC(=O)C1CN(c2ncc(N3CC[C@@H](Oc4ccc(Oc5ccc(F)cc5)nc4)C3=O)cn2)C1 [Compound 4-04] | 5880
19 | CN(C)C(=O)C1CN(c2ccc(N3CC[C@@H](Oc4ccc(OCC5CC5)nc4)C3=O)cn2)C1 [Compound 1-06] | 170
20 | COCC(=O)NC1CN(c2ncc(N3CC[C@@H](Oc4ccc(OCC(F)(F)F)nc4)C3=O)cn2)C1 [Compound 4-23] | 956
21 | CS(=O)(=O)C1CN(c2ncc(N3CC[C@@H](Oc4ccc(C(=O)C5CC5)cc4)C3=O)cn2)C1 [Compound 1-17] | 122
22 | CN(C)C(=O)C1CN(c2ncc(N3CC[C@@H](Oc4ccc(-c5nccs5)cc4)C3=O)cn2)C1 [Compound 2-03] | 324
23 | O=C1[C@H](Oc2ccc(OCC(F)(F)F)nc2)CCN1c1cnc(N2CC(N3CCCC3=O)C2)nc1 [Compound 1-34] | 369
24 | CN(C)C(=O)C1CN(c2ncc(N3CC[C@@H](Oc4ccc(C(=O)C5CC5(F)F)cc4)C3=O)cn2)C1 (stereo partly drawn) [Compound 2-10] | 213
25 | CN(C)C(=O)C1CN(c2ncc(N3CC[C@@H](Oc4ccc(C(=O)C5CC5)cc4)C3=O)cn2)C1 [Compound 2-01] | 218
26 | C[S+]([O-])C1CN(c2ncc(N3CCC(Cc4ccc(OCC(F)(F)F)nc4)C3=O)cn2)C1 (single isomer, unassigned) [Compound 1-46] | 411
27 | O=C1[C@H](Oc2ccc(OCC(F)(F)F)nc2)CCN1c1cnc(N2CC(O)C2)nc1 [Compound 1-22] | 872
28 | CN(C)C(=O)C1CN(c2ccc(N3CC[C@H](Oc4ccc(OCC(F)(F)F)nc4)C3=O)cn2)C1 [Compound 1-11] | 421
29 | CCN(CC)C(=O)C1CN(c2ncc(N3CC[C@@H](Oc4ccc(Oc5ccc(F)cc5)nc4)C3=O)cn2)C1 [Compound 4-07] | 283
30 | CN(C)C(=O)C1CN(c2ncc(N3CC[C@@H](Oc4ccc(C(=O)c5ccc(F)cc5)cc4)C3=O)cn2)C1 [Compound 2-02] | 137

Molecules with a lower EC50, results first:

Row | EC50 [nM] | SMILES
31 | 85 | CN(C(=O)C1CN(c2ncc(N3CC[C@@H](Oc4ccc(OCC(F)(F)F)nc4)C3=O)cn2)C1)C1CC1 [Compound 4-19]
32 | 61 | CN(C)C(=O)C1CN(c2ncc(N3CC[C@@H](Oc4ccc(OCC5CC5)nc4)C3=O)cc2C#N)C1 [Compound 1-05]
33 | 84 | CCN(CC)C(=O)C1CN(c2ncc(N3CC[C@@H](Oc4ccc(OCC(F)(F)F)nc4)C3=O)cn2)C1 [Compound 4-14]
34 | 92 | CN(C)C(=O)C1CN(c2ncc(N3CC[C@@H](Oc4ccc(Oc5ccc(F)cc5)nc4)C3=O)cc2C#N)C1 [Compound 1-08]
35 | 30 | COC(=O)C1CN(c2ccc(N3CC[C@@H](Oc4ccc(OCC5CC5)nc4)C3=O)cn2)C1 [Compound 1-07]
36 | 57 | N#Cc1cc(N2CC[C@@H](Oc3ccc(OCC4CC4)nc3)C2=O)cnc1N1CC(O)C1 [Compound 1-01]
37 | 67 | CN(CO)C(=O)C1CN(c2ccc(N3CC[C@@H](Oc4ccc(OCC(F)(F)F)nc4)C3=O)cn2)C1 [Compound 5-05]
38 | 84 | O=C(C1CN(c2ncc(N3CC[C@@H](Oc4ccc(OCC(F)(F)F)nc4)C3=O)cn2)C1)N1CCCC1 [Compound 4-15]
39 | 70 | CN(C)C(=O)C1CN(c2ncc(N3CC[C@@H](Oc4ccc(OCC5CC5)nc4)C3=O)cc2F)C1 [Compound 1-04]
40 | 82 | CC(C)N(C)C(=O)C1CN(c2ncc(N3CC[C@@H](Oc4ccc(OCC(F)(F)F)nc4)C3=O)cn2)C1 [Compound 4-20]
41 | 12 | COC(=O)C1CN(c2ccc(N3CC[C@@H](Oc4ccc(OCC(F)(F)F)nc4)C3=O)cn2)C1 [Compound 1-52]
42 | 50 | CN(C)C(=O)C1CN(c2ncc(N3CC[C@@H](Oc4ccc(OCC(F)(F)F)nc4)C3=O)cn2)C1 [Compound 1-12]
43 | 116 | O=C(C1CN(c2ncc(N3CC[C@@H](Oc4ccc(OCC(F)(F)F)nc4)C3=O)cn2)C1)N1CCC1 [Compound 4-22]
44 | 44 | CN(C)C(=O)C1CN(c2ccc(N3CC[C@@H](Oc4ccc(OCC(F)(F)F)nc4)C3=O)cn2)C1 [Compound 1-10]
45 | 88 | CNC(=O)C1CN(c2ccc(N3CC[C@@H](Oc4ccc(OCC(F)(F)F)nc4)C3=O)cn2)C1 [Compound 4-25]

From patent US10392366B2, “Azetidine compounds as GPR119 modulators for the treatment of diabetes, obesity, dyslipidemia and related disorders” (SANOFI, priority 2017, dated 2019)
